Laboratory results as given in PMC10578347 (Journal of Medicinal Chemistry, 2023).
“Also recorded” adds a separate entry of the source.

Legend:
[1] = Glutathione reactivity assay; type: physicochemical; conditions: 125 μM compound, 2.5 mM GSH in PBS at 37 °C, up to 24 h
[2] = system: TH and VMAT2 mRNA expression in T98G cells; type: cell-based, human
[3] = molecular target: T1, NOR-1 (NR4A3) (Homo sapiens, UniProt Q92570); type: cell-based
T1 sequence (Q92570 394-623 limits assumed): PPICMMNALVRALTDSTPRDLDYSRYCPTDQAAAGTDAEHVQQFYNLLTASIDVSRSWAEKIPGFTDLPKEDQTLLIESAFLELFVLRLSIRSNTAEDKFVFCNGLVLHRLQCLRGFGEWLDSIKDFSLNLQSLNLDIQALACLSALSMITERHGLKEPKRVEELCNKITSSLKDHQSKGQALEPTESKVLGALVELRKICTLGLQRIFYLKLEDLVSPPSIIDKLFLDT

[4] = system: HEK293T cells; experiment: WST-8 cytotoxicity assay; type: cell-based; conditions: stable Renilla luciferase activity and WST-8 assay; 100 μM
[5] = molecular target: Nur77 (NR4A1) (Homo sapiens, UniProt P22736); type: cell-based
Chain of Nur77 (NR4A1) (P22736 360-595 limits assumed, species assumed): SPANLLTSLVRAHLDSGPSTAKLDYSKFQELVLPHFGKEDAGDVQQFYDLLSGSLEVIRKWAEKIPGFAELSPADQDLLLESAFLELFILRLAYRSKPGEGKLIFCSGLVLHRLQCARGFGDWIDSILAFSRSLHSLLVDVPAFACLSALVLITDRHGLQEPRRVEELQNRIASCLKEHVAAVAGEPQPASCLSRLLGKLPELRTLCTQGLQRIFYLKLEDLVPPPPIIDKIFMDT

[6] = system: nuclear receptors outside the NR4A family (THRα, RARα, PPARγ, revERBα, RORγ, VDR, LXRα, FXR, RXRα); type: cell-based
[7] = system: TH, VMAT2, SOD1/2 mRNA expression in N27 rat dopaminergic neural cells; type: cell-based
[8] = molecular target: Nurr1 LBD (Homo sapiens, UniProt P43354); experiment: Isothermal titration calorimetry; type: binding; conditions: ITC, 25 °C, recombinant Nurr1 LBD
Chain of Nurr1 LBD (Homo sapiens, UniProt P43354) (P43354 360-598): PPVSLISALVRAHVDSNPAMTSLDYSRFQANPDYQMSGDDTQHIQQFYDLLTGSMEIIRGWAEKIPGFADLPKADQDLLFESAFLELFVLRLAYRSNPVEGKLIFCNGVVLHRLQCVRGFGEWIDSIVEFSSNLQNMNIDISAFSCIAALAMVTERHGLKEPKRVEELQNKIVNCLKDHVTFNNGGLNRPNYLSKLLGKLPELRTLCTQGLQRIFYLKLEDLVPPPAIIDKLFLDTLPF

[9] = molecular target: Nurr1 LBD; conditions: cited from earlier work

Structure (SMILES) | effect on cell viability [4] | TH, VMAT, SOD1/2 expression [7] | Kd [8] | further results
CN(C)CCOc1ccc(Cl)cc1NC(=O)c1cc2[nH]ccc2cc1Cl [5o, 5-Chloro-N-{5-chloro-2-[2-(dimethylamino)ethoxy]phenyl}-1H-indole-6-carboxamide] | no pronounced effect on cell viability | induced | – | stability against reaction with glutathione (GSH) [1]: stable; also recorded: High stability; Nurr1-regulated mRNA expression of TH and VMAT2 [2]: induced; activity on NOR-1 (NR4A3) [3]: preference for Nurr1 over the related NR4A receptors; also recorded: no NOR-1 (NR4A3) activation; activity on Nur77 (NR4A1) [5]: preference for Nurr1 over the related NR4A receptors; also recorded: preference of 5o for Nurr1 over Nur77; modulation of nuclear receptors outside the NR4A family [6]: did not modulate; also recorded: No nuclear receptor modulation
O=C(NCCN1CCC2CCCCC2C1)c1cc2[nH]ccc2cc1Cl (centres unmarked) [5r] | no pronounced effect on cell viability | – | – | –
CC(C)N1CCC(NC(=O)c2cc3[nH]ccc3cc2Cl)CC1 [5e] | no pronounced effect on cell viability | – | no detectable interaction; also recorded: no binding^c | –
CN(C)CCOc1ccc(Cl)cc1Nc1ccnc2cc(Cl)ccc12 [compound 13, 7-Chloro-N-{5-chloro-2-[2-(dimethylamino)ethoxy]phenyl}quinolin-4-amine] | – | induced | – | activity on NOR-1 (NR4A3) [3]: preference over NOR-1; also recorded: less active on NOR-1; activity on Nur77 (NR4A1) [5]: activated Nurr1 and Nur77 with equal potency; modulation of nuclear receptors outside the NR4A family [6]: did not modulate; also recorded: No nuclear receptor modulation
CC1CCN(CCCNC(=O)c2cc3[nH]ccc3cc2Cl)CC1 [5m] | no pronounced effect on cell viability | – | no detectable interaction; also recorded: no binding^c | –
CCCCN1CCC(CNC(=O)c2cc3[nH]ccc3cc2Cl)C1 (centres unmarked) [5v] | no pronounced effect on cell viability | – | – | –
CCN(CC)C1CCC(NC(=O)c2cc3[nH]ccc3cc2Cl)CC1 (centres unmarked) [5t] | no pronounced effect on cell viability | – | no detectable interaction; also recorded: no binding^c | –
Clc1ccc2[nH]ccc2c1 [2b, 5-chloro-1H-indole] | – | induced | – | Kd [9]: 15 µM
Oc1cc2cc[nH]c2cc1O [DHI (2a), 5,6-dihydroxyindole] | – | generally weaker effects | – | TH expression [7]: downregulated
